# From patent US6445486B1, “Electroactive materials and beneficial agents having a solubilizing moiety” (Gentex Corporation, priority 1999, dated 2002)
# Test: Solubility at saturation in the solvent of interest, calculated from UV-VIS spectra of saturated solutions
# Settings: propylene carbonate, organic solvent or mixture, thermodynamic from solid
row,solubility [mM],Molecule
1,12,"CCn1c(=NN=c2sc3ccccc3n2CC)sc2ccccc21 [N,N′-Bis-(3-ethyl-3H-benzothiazol-2-ylidene)-hydrazine, reference compound]"
2,5,"c1ccc(N2c3ccccc3N(CCN3CCCCC3)c3ccccc32)cc1 [5-Phenyl-10-(2-piperidin-1-yl-ethyl)-5,10-dihydrophenazine, reference compound]"
3,55,"Cc1ccc2c(c1)N(C)c1ccc(C)cc1N2C [2,5,7,10-Tetramethyl-5,10-dihydrophenazine, reference compound]"
4,110,"CN1c2ccccc2N(C)c2ccccc21 [5,10-Dihydro-5,10-dimethylphenazine, reference compound]"

row,Molecule,solubility [mM]
1,CC[N+](CC)(CC)CCCCn1c(=NN=c2sc3ccccc3n2C)sc2ccccc21.F[B-](F)(F)F [triethyl-(4-{2-[(3-methyl-3H-benzothiazol-2-ylidene)-hydrazono]-benzothiazol-3-yl}-butyl)-ammonium tetrafluoroborate],47

# Same assay, conditions: saturated solution in propylene carbonate; ambient temperature
row,Molecule,Solubility in propylene carbonate [mM]
1,F[B-](F)(F)F.F[B-](F)(F)F.N#Cc1ccc(-[n+]2ccc(-c3cc[n+](CCC[c-]4cccc4)cc3)cc2)cc1.[Fe+2].c1cc[cH-]c1 [Ferrocenepropyl-p-cyanophenylviologen tetrafluoroborate],276.0
2,"CC[N+](CC)(CC)CCN1c2ccccc2N(CC[N+](CC)(CC)CC)c2ccccc21.F[B-](F)(F)F.F[B-](F)(F)F [5,10-Bis-2-(triethylammonium)ethylphenazine [BF4]2]",200
3,"CC[N+](CC)(CC)CCN1c2ccc(C)cc2N(CC[N+](CC)(CC)CC)c2ccc(C)cc21.F[B-](F)(F)F.F[B-](F)(F)F [2,7-Dimethyl-5,10-bis-2-(triethylammonium)ethylphenazine [BF4]2]",250
4,1-Triethylammonium-6-(tetra-t-butylferrocenyl)hexane BF4,514.4

# Test: physchem
# Settings: organic solvent or mixture, thermodynamic from solid
row,Molecule,solubility [mM]
1,C[N+]1(CCN2c3ccccc3N(c3ccccc3)c3ccccc32)CCCCC1.F[P-](F)(F)(F)(F)F [1-Methyl-1-[2-(10-phenyl-10H-phenazin-5-yl)-ethyl]-piperidinium hexafluorophosphate],500
